The record followed here is PubChem BioAssay (NCI).

Molecules are shown by their SMILES.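 Tested at 5 concentrations; 48 h exposure; 96-well plates; endpoints linearly interpolated, else capped at highest concentration. GI50 = concentration required for 50% inhibition of growth. TGI marks complete inhibition of growth.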

Assay in all cases: NCI tumour cell line growth inhibition, 48 h
Assay [1] relates to CAKI-1 renal.
The subject of assay [2] is NCI-H23 lung.
Assay [3] has as its system SNB-19 CNS.
Assay [4] relates to UACC-62 melanoma.
The subject of assay [5] is RPMI-8226 leukemia.
The test system of assay [6] is CCRF-CEM leukemia.
In assay [7] the test system is HCT-116 colon.
Assay [8] relates to UO-31 renal.
The subject of assay [9] is HCC-2998 colon.

As for `Cc1nc2ccccc2c(=O)n1/N=C(\N=Nc1cc(Cl)ccc1Cl)c1ccc(N(C)C)cc1`, the TGI in assay [1] was 79.8 µM; in assay [2] it was more than 100 µM; in [3], more than 100 µM; in [4], more than 100 µM; in [5] it was more than 100 µM; in [6], more than 100 µM. Besides, the TGI in assay [7] and in assay [8] was more than 100 µM throughout.
Turning to `C#Cc1c(C)c(/C=C/C(C)=C\C(=O)OC)n(C)c1C`, the TGI in assay [1], in assay [2], in assay [3], in assay [4], in assay [5] and in [6] was more than 100 µM throughout. Also, the TGI in assay [9] and in [8] was more than 100 µM each time.
For `CC(C)(C)n1cc(-c2ccnc(NCCCNS(=O)(=O)c3cccc4ccccc34)c2)c(-c2cccc(O)c2)n1`, the GI50 in [1] is 2.49 µM; in assay [2], 1.78 µM; in assay [3], 2.63 µM; in assay [4] it was 1.67 µM; in assay [6] it was 2.44 µM; in [9] it was 1.87 µM. Also, the results for the GI50 in assay [7] and in assay [8] were 1.4 µM and 2.26 µM, respectively. Further, the TGI in assay [1] is 7.04 µM; in assay [2] it was 3.84 µM; in assay [3], 7.21 µM; in [4], 3.28 µM; in assay [6] it was more than 100 µM; in [9], 3.37 µM. For the same compound, the TGI worked out at 2.89 µM in [7] and 7.97 µM in assay [8].
For the compound `C=C1C(=O)C23C(O)CC4C(C)(C)CCC(O)C4(C)C2CC(OC(C)=O)C1[C@H]3O` (stereo partly drawn), the TGI is 9.39 µM in assay [1]; 8.38 µM in assay [2]; 30.9 µM in [3]; more than 32 µM in assay [5]; 2.7 µM in assay [6]; 14.8 µM in [9]. Further, the TGI in [7] is 5.88 µM; in [8] it was 29.7 µM.
`CC(=O)O[C@H]1CSC[C@@H](OC(C)=O)C1[N+](=O)[O-]` (stereo partly drawn): the TGI in assay [1] was more than 100 µM; in assay [2], more than 100 µM; in assay [3], more than 100 µM; in assay [4] it was more than 100 µM; in [5], 59.5 µM; in assay [6], 44.4 µM. Moreover, the TGI in assay [9] and in assay [7] was more than 100 µM each time.
As for `CCN(CC)c1ccc(N=Nc2ccc(-c3nc4cccnc4s3)cc2)cc1`, the TGI in assay [1], in assay [2], in [3], in assay [4], in assay [5] and in assay [6] was more than 100 µM in each case. Besides, the TGI in assay [9], in assay [7] and in [8] was more than 100 µM throughout.
`O=C(CC1(O)C(=O)Nc2ccccc21)c1cccc(O)c1` (stereo not drawn): the TGI in assay [1], in assay [2], in assay [3], in [4], in assay [5] and in [7] was more than 100 µM throughout. The same compound gave a TGI in assay [8] of more than 100 µM.
As for `CC(C)(c1ccc(C=O)o1)c1ccc(C(C)(C)c2ccc(C=O)o2)o1`, the TGI in assay [1], in assay [2], in assay [3], in [6], in [9] and in assay [7] was more than 100 µM in each case.
In the case of `NN=C1/C(=C\c2ccccc2)CCC/C1=C/c1ccccc1`, the TGI in assay [2] was more than 100 µM; in assay [3], more than 100 µM; in assay [4], more than 100 µM; in [5], 38 µM; in [6], 45 µM; in [9], more than 100 µM. Moreover, the values for the TGI in assay [7] and in assay [8] were more than 100 µM and 94.2 µM, respectively.
`CCOC(=O)C1=C(C)N(NC(=O)Nc2ccccc2)C2(N)N(NC(=O)Nc3ccccc3)C(C)=C(C(=O)OCC)C12C#N` (stereo not drawn): the TGI is 40.1 µM in assay [1]; 43.9 µM in [2]; 32.2 µM in assay [4]; 50.5 µM in assay [5]; 71.9 µM in [6]; 33.9 µM in assay [9]. The TGI in assay [7] was 31.2 µM; in assay [8], more than 100 µM.
In the case of `CCNC(=O)O/N=C1\CCC2[C@@H]3CC=C4C[C@@H](OC(=O)NCC)CC[C@]4(C)C3CC[C@]12C` (stereo partly drawn), the TGI in assay [2] came out at 11.7 µM; in assay [3] it was 14.1 µM; in assay [4], 10.2 µM; in assay [5], 5.69 µM; in [9], 17.7 µM; in [7], 13.7 µM. The compound also showed a TGI in [8] of 2.62 µM.
In the case of `CSCSCC(CO)NC(=O)/C=C/c1c(C)[nH]c(=O)[nH]c1=O` (stereo not drawn), the TGI in assay [1], in assay [2], in assay [3], in assay [4], in [5] and in assay [6] was more than 100 µM in each case. Moreover, the TGI in [9], in [7] and in [8] was more than 100 µM in each case.
Turning to `N#Cc1c(N)oc2cc3c(C#N)c(N)oc3cc12`, the TGI in assay [1], in assay [2], in assay [3], in assay [4], in assay [5] and in assay [6] was more than 100 µM in each case. Moreover, the TGI in [9] and in assay [8] was more than 100 µM throughout.
Take `Nc1nc(SCC#CCCl)c2[nH]cnc2n1`: the GI50 in assay [1] is 2.83 µM; in [2], 4.46 µM; in assay [3], 10.5 µM; in assay [4], 5.46 µM; in assay [5], 6.86 µM; in assay [6], 3.39 µM. Moreover, the figures for the GI50 in [9], in [7] and in [8] were 5.85 µM, 3.86 µM and 2.39 µM, respectively. Besides, the TGI in assay [1] amounted to 10.6 µM; in assay [2], 20.1 µM; in assay [3] it was 23.2 µM; in assay [4], 18.1 µM; in assay [5], 48.8 µM; in assay [6], 19.3 µM. Moreover, the TGI in assay [9] was 18.9 µM; in [7] it was 15.2 µM; in assay [8], 11.5 µM.
